Reference: paper PMC5638539, “A mannitol/sorbitol receptor stimulates dietary intake in Tribolium castaneum” (PLoS ONE, 2017)

Legend:
[1] = biological target: T1, TcGr20 (gustatory receptor 20) (Tribolium castaneum, UniProt D2A5I4); assay: two-electrode voltage clamp in Xenopus oocytes expressing TcGr20, dose-response; water-injected control negative; type: cell-based
T1 construct: ORF of TcGr20 expressed in Xenopus oocytes
T1 sequence (D2A5I4 1-388): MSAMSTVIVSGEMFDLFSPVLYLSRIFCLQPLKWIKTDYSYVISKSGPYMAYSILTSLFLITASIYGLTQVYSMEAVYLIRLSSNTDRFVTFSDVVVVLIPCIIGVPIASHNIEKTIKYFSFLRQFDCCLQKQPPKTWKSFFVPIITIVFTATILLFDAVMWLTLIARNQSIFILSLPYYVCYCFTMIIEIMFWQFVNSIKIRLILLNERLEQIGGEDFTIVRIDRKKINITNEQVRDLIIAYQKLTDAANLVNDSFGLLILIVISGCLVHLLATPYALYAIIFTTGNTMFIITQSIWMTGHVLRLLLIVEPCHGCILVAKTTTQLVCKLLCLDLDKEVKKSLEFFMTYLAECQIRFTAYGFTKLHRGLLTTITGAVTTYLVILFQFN

[2] = biological target: T1, TcGr20 (gustatory receptor 20); assay: two-electrode voltage clamp in Xenopus oocytes expressing TcGr20, dose-response; type: cell-based

| Compound | EC50 [1] [mM] | EC50 [2] [mM] |
| --- | --- | --- |
| OC[C@@H](O)[C@@H](O)[C@H](O)[C@H](O)CO [mannitol] | 72.6 ± 9.1 | – |
| OC[C@@H](O)[C@@H](O)[C@H](O)[C@@H](O)CO [sorbitol] | – | 90.6 ± 10.4 |
